According to patent US20050282873A1, “Epothilone derivative for the treatment of hepatoma and other cancer diseases” (priority 2002, published 2005):

Columns and labels:
Format in all cases: in vivo, human
[1] = system: androgen-independent prostate cancer; test: Open-label, single-arm, two-stage multicenter efficacy study in androgen-independent prostate cancer; conditions: i.v. 2.5 mg/m^2, 5 minute bolus infusion weekly for three weeks, one week off; chemo-naïve or failed one prior chemotherapy; trial ongoing
Description: Open-label, single-arm, two-stage, multicenter study to investigate the efficacy of EPO906 administered intravenously at 2.5 mg/m^2 as a 5 minute bolus infusion once a week for three weeks followed by one week off in patients with androgen-independent prostate cancer who are chemo-naïve or who have failed one prior chemotherapy. 7,11-Dihydroxy-8,8,10,12,16-pentamethyl-3-[1-methyl-2-(2-methyl-thiazol-4-yl)-vinyl]-4,17-dioxa-bicyclo[14.1.0]heptadecane-5,9-dione is administered once every week for three weeks followed by a one-week drug holiday until either progression of disease or unacceptable toxicities occurs. Each four-week period is considered one cycle. Patients are evaluated for tumor response one week after their last dose of every other cycle, starting with Cycle 2. Patients may, at any time, have their dose reduced to 2.0 mg/m^2 if in the investigator's opinion the original dose is either intolerable or unsafe for any given patient, and without such a dose reduction the patient will be forced to withdraw from the study. All dose modifications are captured on the dose administration record CRF. The study period for efficacy evaluation is up to six cycles.
Patients taking PC-SPES must discontinue therapy for a minimum of 4 weeks. […]

[2] = system: ovarian, primary Fallopian, or primary peritoneal cancer; test: Open-label, single-arm, two-stage, multi-center efficacy study in ovarian, primary Fallopian or primary peritoneal cancer patients; conditions: i.v. 2.5 mg/m2, 5 minute bolus infusion weekly for three weeks, one week off; patients failed or relapsed within six months of first-line taxane/platinum therapy; study ongoing
Description: An open-label, single-arm, two-stage, multi-center study investigating the efficacy of 7,11-Dihydroxy-8,8,10,12,16-pentamethyl-3-[1-methyl-2-(2-methyl-thiazol-4-yl)-vinyl]-4,17-dioxa-bicyclo[14.1.0]heptadecane-5,9-dione administered intravenously at 2.5 mg/m2 as a 5 minute bolus infusion repeated every week for three weeks followed by one week off in patients who have ovarian, primary Fallopian, or primary peritoneal cancer. […] Chemotherapies other than taxane/platinum or an additional agent to this regimen will not be allowed. […] A third therapeutic agent administered as part of the taxane/platinum therapy is permitted for refractory disease if all other criteria are met.

[3] = system: advanced colorectal cancer; test: Open-label, single-arm, two-stage multicenter efficacy study in advanced colorectal cancer, once every three weeks; conditions: i.v. 6.0 mg/m^2, 5 minute bolus infusion once every three weeks; colorectal cancer patients who failed fluoropyrimidine and Irinotecan or oxaliplatin; trial ongoing
Description: An open-label, single-arm, two-stage, multicenter study to investigate the efficacy of 7,11-Dihydroxy-8,8,10,12,16-pentamethyl-3-[1-methyl-2-(2-methyl-thiazol-4-yl)-vinyl]4,17-dioxa-bicyclo[14.1.0]heptadecane-5,9-dione administered intravenously at 6.0 mg/m^2 as a 5 minute bolus infusion repeated once every three weeks in patients with advanced colorectal cancer. 7,11-Dihydroxy-8,8,10,12,16-pentamethyl-3-[1-methyl-2-(2-methyl-thiazol-4-yl)vinyl]4,17-dioxa-bicyclo[14.1.0]heptadecane-5,9-dione is administered once every three weeks until either progression of disease or unacceptable toxicities occurs. Each three-week period is considered one cycle. Patients are evaluated for tumor response one week after the last dose of every third cycle, starting with Cycle 3. Patients may, at any time, have their dose reduced to 5.4 mg/m^2 or 4.8 mg/m^2 if in the investigator's opinion the original dose is either intolerable or unsafe for any given patient, and without such a dose reduction the patient will be forced to withdraw from the study. All dose modifications are captured on the Dose Administration Record CRF.
The study period for efficacy evaluation is up to nine cycles. […]

advanced renal cancer = test: Open-label, single-arm, two-stage multicenter efficacy study in patients with advanced renal cancer; conditions: i.v. 2.5 mg/m2, 5 minute bolus infusion weekly for three weeks, one week off, trial ongoing
Description: An open-label, single-arm, two-stage multicenter study investigating the efficacy of 7,11-Dihydroxy-8,8,10,12,16-pentamethyl-3-[1-methyl-2-(2-methyl-thiazol-4-yl)-viny]-4,17-dioxa-bicyclo[14.1.0]heptadecane-5,9-dione administered intravenously at 2.5 mg/m2 as a 5 minute bolus infusion repeated every week for three weeks followed by one week off in patients with advanced renal cancer. 7,11-Dihydroxy-8,8,10,12,16-pentamethyl-3-[1-methyl-2-(2-methyl-thiazol-4-yl)-vinyl]-4,17-dioxa-bicyclo[14.1.0]heptadecane-5,9-dione is administered once every week for three weeks followed by a one-week drug holiday until either progression of disease or unacceptable toxicities occurs. Each four-week period is considered one cycle. Patients are evaluated for tumor response one week after their last dose of every other cycle, starting with Cycle 2. Patients may, at any time, have their dose reduced to 2.0 mg/m2 if in the investigators opinion the original dose is either intolerable or unsafe for any given patient, and without such a dose reduction the patient would be forced to withdraw from the study. All dose modifications are captured on the dose administration record CRF. The study period for efficacy evaluation is up to six cycles. The study will enroll patients with histologically confirmed transitional cell carcinoma of the kidney. […]

[4] = system: advanced colorectal cancer; test: Open-label, single-arm, two-stage multicenter efficacy study in advanced colorectal cancer, weekly regimen; conditions: i.v. 2.5 mg/m2, 5 minute bolus infusion weekly for three weeks, one week off; colorectal cancer patients who failed fluoropyrimidine and Irinotecan or oxaliplatin; trial ongoing
Description: An open-label, single-arm, two-stage multicenter study to investigate the efficacy of 7,11-Dihydroxy-8,8,10,12,16-pentamethyl-3-[1-methyl-2-(2-methyl-thiazol-4-yl)vinyl]-4,17-dioxa-bicyclo[14.1.0]heptadecane-5,9-dione administered intravenously at 2.5 mg/m2 as a 5 minute bolus infusion repeated every week for three weeks followed by one week off in patients with advanced colorectal cancer. 7,11-Dihydroxy-8,8,10,12,16-pentamethyl-3-[1-methyl-2-(2-methyl-thiazol-4-yl)-vinyl-]-4,17-dioxa-bicyclo[14.1.0]heptadecane-5,9-dione is administered once every week for three weeks followed by a one-week drug holiday until either progression of disease or unacceptable toxicities occurs. Each four-week period is considered one cycle. Patients are evaluated for tumor response one week after their last dose of every other cycle, starting with Cycle 2. Patients may, at any time, have their dose reduced to 2.0 mg/m^2 if in the investigator's opinion the original dose is either intolerable or unsafe for any given patient, and without such a dose reduction the patient will be forced to withdraw from the study. All dose modifications are captured on the dose administration record CRF. The study period for efficacy evaluation is up to six cycles. […]

CC(=Cc1csc(C)n1)C1CC2OC2(C)CCCC(C)C(O)C(C)C(=O)C(C)(C)C(O)CC(=O)O1 (centres unmarked) [7,11-Dihydroxy-8,8,10,12,16-pentamethyl-3-[1-methyl-2-(2-methyl-thiazol-4-yl)-vinyl]-4,17-dioxa-bicyclo[14.1.0]heptadecane-5,9-dione]
response of patients in the trial [1]: Several patients show a positive response
response of patients in the study [2]: Several patients show a positive response
response of patients in the trial [3]: Several patients shown a positive response
response of patients in the study (advanced renal cancer): Several patients show a positive response
response of patients in the trial [4]: Several patients shown a positive response
